Assay results as given in US10900063B2, “Measurement of Lp-PLA2 activity” (ASAHI KASEI PHARMA CORPORATION, priority 2016, dated 2021).

How the values were obtained:
Lp-PLA2 = target: T1, Lp-PLA2 (Homo sapiens, UniProt Q13093); assay: Lp-PLA2 activity measurement in serum/plasma with reagents of the invention (PAF substrate, lyso-PAF-PLD, choline oxidase, peroxidase colorimetry); format: biochemical; conditions: for values for absorbance change (sensitivity) compared with DAOS: Trinder reagent with 4-AA; for Relative activity: PAF(C16) = 100
T1 construct: Individual serum No. 16, individual serum No. 78; from tissue; host or cells: serum and plasma (individual sera, pooled sera, heparin and citrated pooled plasma)
T1 sequence (Q13093 22-441): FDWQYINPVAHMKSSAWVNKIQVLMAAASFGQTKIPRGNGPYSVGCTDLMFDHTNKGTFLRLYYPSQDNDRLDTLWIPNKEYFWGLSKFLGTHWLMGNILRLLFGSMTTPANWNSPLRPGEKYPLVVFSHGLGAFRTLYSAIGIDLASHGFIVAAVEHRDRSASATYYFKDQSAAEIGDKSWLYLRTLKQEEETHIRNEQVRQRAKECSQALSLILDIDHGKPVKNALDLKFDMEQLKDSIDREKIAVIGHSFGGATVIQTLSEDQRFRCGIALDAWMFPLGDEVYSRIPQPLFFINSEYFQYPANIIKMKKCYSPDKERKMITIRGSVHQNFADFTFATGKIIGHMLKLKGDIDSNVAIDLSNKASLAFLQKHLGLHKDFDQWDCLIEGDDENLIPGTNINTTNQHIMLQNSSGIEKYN
Method: Unless otherwise specified, in these examples the Method 1 described under 1) below is used for calculating Lp-PLA2 activity values. In these examples, (nmol/min/mL) is sometimes expressed as (U/L).
This is calculated by the following formula based on the absorbance change per minute (ΔmAbs/min) as calculated from absorbance at the measuring points and the millimolar extinction coefficient (ε=36) of TODB at 546 nm.
(§1) 4 μL of the sample was mixed with 160 μL of the R1 reagent, and incubated for 5 minutes at 37° C. (measuring points 1 to 16), after which 40 μL of the R2 reagent was added to initiate a reaction (measuring point 17). The absorbance of water (blank) at the same measuring points was subtracted from the absorbance of the sample about 3.6 to 4.5 minutes after the reaction was initiated by addition of the R2 reagent (measuring points 30 to 33) to calculate the absorbance change per minute (ΔmAbs/min), and the Lp-PLA2 activity value (nmol/min/mL) was calculated according to the previous formula.
[…] was mixed with 150 μL of the R1 reagent, and incubated for 5 minutes at 37° C. (measuring points 1 to 15), after which 100 μL of the R2 reagent was added to initiate a reaction (measuring point 16). The absorbance of water (blank) at the same measuring points was subtracted from the absorbance of the sample about 2 to 3 minutes after the reaction was initiated by addition of the R2 reagent (measuring points 23 to 26) to calculate the absorbance change per minute (ΔmAbs/min), and the Lp-PLA2 activity value (nmol/min/mL) was calculated according to the previous formula. The values for absorbance change per minute (sensitivity) (ΔmAbs/min) and the Lp-PLA2 activity values (nmol/min/mL) at each pH are shown in Tables 1 and 2.
(§2) 5 μL of sample was mixed with 150 μL of the R1 reagent, and incubated for 5 minutes at 37° C. (measuring points 1 to 15), after which 100 μL of the R2 reagent was added to initiate a reaction (measuring point 16). The absorbance of water (blank) at the same measuring points was subtracted from the absorbance of the sample about 3.5 to 4.5 minutes after the reaction was initiated by addition of the R2 reagent (measuring points 27 to 30) to calculate the absorbance change per minute (ΔmAbs/min), and the Lp-PLA2 activity value (nmol/min/mL) was calculated according to the previous formula. The values for absorbance change per minute (sensitivity) (ΔmAbs/min) and Lp-PLA2 activity (nmol/min/mL) and the relative activity for each substrate given 100 as the Lp-PLA2 activity value for PAF(C16) are shown in Tables 19 to 24.
Each sample was mixed with 160 μL of the R1 reagent, and incubated for 5 minutes at 37° C., (measuring points 1 to 15), after which 40 μL of the R2 reagent was added to initiate the reaction (measuring point 16). The absorbance of water (blank) at the same measuring points was subtracted from the absorbance of the sample about 3.5 to 4.5 minutes after the reaction was initiated by addition of the R2 reagent (measuring points 27 to 30) to calculate the absorbance change per minute (ΔmAbs/min), and the Lp-PLA2 activity value (nmol/min/mL) was calculated according to the previous formula. […]
as §1, with “(measuring” for “4 μL of the sample was mixed with 160 μL of the R1 reagent, and incubated for 5 minutes at 37° C. (measuring”, “100” for “40”, “3.5” for “3.6”, “29” for “30”, “32)” for “33)”

rLp-PLA2 = target: T2, rLp-PLA2 (Homo sapiens, UniProt Q13093, I42M); assay: Lp-PLA2 activity measurement with reagents of the invention, recombinant Lp-PLA2 as sample; format: biochemical; conditions: Example 9, sample rLp-PLA2 (0.017 mg/mL)
T2 construct: histidine tag (from vector pET-19b) (N); made in house; host or cells: E. coli BL21(DE3), plasmid Lp-PLA2/pET-19b
T2 sequence (Q13093 42-441 I42M): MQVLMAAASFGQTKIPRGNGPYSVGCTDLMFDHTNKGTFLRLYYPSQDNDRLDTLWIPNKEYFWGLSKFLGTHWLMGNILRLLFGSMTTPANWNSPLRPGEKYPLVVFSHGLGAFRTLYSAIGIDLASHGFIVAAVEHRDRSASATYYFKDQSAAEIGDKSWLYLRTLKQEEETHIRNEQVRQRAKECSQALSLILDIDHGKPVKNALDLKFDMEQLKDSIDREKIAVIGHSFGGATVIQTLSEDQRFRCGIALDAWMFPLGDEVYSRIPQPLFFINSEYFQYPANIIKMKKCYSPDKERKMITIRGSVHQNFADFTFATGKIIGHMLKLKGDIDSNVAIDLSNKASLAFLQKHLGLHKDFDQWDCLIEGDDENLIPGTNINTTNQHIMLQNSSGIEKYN
Method: The recombinant Lp-PLA2 (rLp-PLA2) used in these examples was prepared in accordance with Reference Examples 4 to 6 based on the information disclosed in J. Biol. Chem., Oct. 27, 1995, No. 43, Vol. 270, pp. 25481-25487.
A gene optimized for E. coli (matched to E. coli codon usage) was synthesized (GenScript (NJ, USA)) based on the sequence data for a human Lp-PLA2 gene. Using the synthesized DNA as a template, a roughly 1200 bp PCR product was obtained by PCR using KOD FX (Toyobo Co., Ltd.) using as the sense primer the nucleotide sequence of SEQ ID NO: 5 in which the 42nd isoleucine was changed to the sequence of the initial methionine, with the nucleotide sequence of SEQ ID NO: 6 as the antisense primer. The resulting PCR product was digested with NdeI (Takara Bio Inc.) and BamHI (Takara Bio Inc.), and inserted into the NdeI-BamHI site of the expression vector pET-19b (Novagen) to obtain an Lp-PLA2/pET-19b expression plasmid. This expression plasmid was transformed into One shot BL21(DE3) Chemically Competent E. coli, to obtain a transformant called Lp-PLA2/pET-19b/BL21(DE3) comprising a recombinant vector containing a polynucleotide consisting of a nucleotide sequence encoding Lp-PLA2 with a histidine tag from the vector added at the N-terminus.
as §2

[1] = Example 4, 50 mM buffer pH 7.5 in R1 and R2, sample Individual serum 16
[2] = Example 4, 50 mM buffer pH 7.5 in R1 and R2, sample Individual serum 78
[3] = Example 10, 0.03% Trinder reagent in R1 with 4-AA, sample Individual serum No16
[4] = Example 10, 0.03% Trinder reagent in R1 with 4-AA, sample Individual serum No78
[5] = Example 10, 0.03% Trinder reagent in R1 with 4-AA, sample Pooled serum J042
[6] = Example 9, 10 mM substrate in R2, sample Citrated pooled plasma
[7] = Example 9, 10 mM substrate in R2, sample Heparin pooled plasma
[8] = Example 9, 10 mM substrate in R2, sample Individual serum 16
[9] = Example 9, 10 mM substrate in R2, sample Pooled serum C
[10] = Example 9, 10 mM substrate in R2, sample Pooled serum J042

Row | Lp-PLA2 activity value (Lp-PLA2; [1]) | absorbance change per minute (sensitivity) (Lp-PLA2; [1]) | Lp-PLA2 activity value (Lp-PLA2; [2]) | absorbance change per minute (sensitivity) (Lp-PLA2; [2]) | Lp-PLA2 activity value (Lp-PLA2; [3]) | absorbance change per minute (sensitivity) (Lp-PLA2; [3]) | Lp-PLA2 activity value (Lp-PLA2; [4]) | absorbance change per minute (sensitivity) (Lp-PLA2; [4]) | Lp-PLA2 activity value (Lp-PLA2; [5]) | absorbance change per minute (sensitivity) (Lp-PLA2; [5]) | Structure (SMILES) | other results
1 | 89.5 nmol/min/mL | 38.2 ΔmAbs/min | 43.1 nmol/min/mL | 18.4 ΔmAbs/min |  |  |  |  |  |  | O=S(=O)(O)CCN1CCN(CCS(=O)(=O)O)CC1 [PIPES, Piperazine-1,4-bis(2-ethanesulfonic acid)] | 
2 | 81.3 nmol/min/mL | 34.7 ΔmAbs/min | 39.4 nmol/min/mL | 16.8 ΔmAbs/min |  |  |  |  |  |  | O=S(=O)(O)CCCN1CCOCC1 [MOPS, 3-Morpholinopropanesulfonic acid] | 
3 | 76.4 nmol/min/mL | 32.6 ΔmAbs/min | 36.5 nmol/min/mL | 15.6 ΔmAbs/min |  |  |  |  |  |  | O=S(=O)(O)CCN1CCN(CCO)CC1 [HEPES, 2-[4-(2-Hydroxyethyl)-1-piperazinyl]ethanesulfonic acid] | 
4 |  |  |  |  | 71.0 nmol/min/mL | 30.3 ΔmAbs/min | 30.0 nmol/min/mL | 12.8 ΔmAbs/min | 31.9 nmol/min/mL | 13.6 ΔmAbs/min | Cc1cccc(N(CCCCS(=O)(=O)[O-])CCCCS(=O)(=O)[O-])c1.[Na+].[Na+] [TODB, N,N-bis(4-sulfobutyl)-3-methylaniline, disodium salt] | values for absorbance change (sensitivity) compared with DAOS (Lp-PLA2; Example 10): about twice those obtained with DAOS
5 | 99.1 nmol/min/mL | 42.3 ΔmAbs/min | 44.7 nmol/min/mL | 19.1 ΔmAbs/min |  |  |  |  |  |  | NC(CO)(CO)CO [Tris, 2-Amino-2-hydroxymethyl-1,3-propanediol] | 
6 |  |  |  |  |  |  |  |  |  |  | CCCCCCCCCCCCCCCCOC[C@H](COP(=O)([O-])OCC[N+](C)(C)C)OC(C)=O [PAF(C16), 1-O-Hexadecyl-2-acetyl-sn-glycero-3-phosphocholine] | Lp-PLA2 activity value (rLp-PLA2; 10 mM substrate in R2): 132.3 nmol/min/mL; absorbance change per minute (sensitivity) (rLp-PLA2; 10 mM substrate in R2): 93.4 ΔmAbs/min; Relative activity (rLp-PLA2; PAF(C16) = 100): 100%; Lp-PLA2 activity value (Lp-PLA2; [6]): 33.3 nmol/min/mL; absorbance change per minute (sensitivity) (Lp-PLA2; [6]): 23.5 ΔmAbs/min; Lp-PLA2 activity value (Lp-PLA2; [7]): 44.3 nmol/min/mL; absorbance change per minute (sensitivity) (Lp-PLA2; [7]): 31.3 ΔmAbs/min; Lp-PLA2 activity value (Lp-PLA2; [8]): 94.8 nmol/min/mL; absorbance change per minute (sensitivity) (Lp-PLA2; [8]): 66.9 ΔmAbs/min; Lp-PLA2 activity value (Lp-PLA2; [9]): 40.8 nmol/min/mL; absorbance change per minute (sensitivity) (Lp-PLA2; [9]): 28.8 ΔmAbs/min; Lp-PLA2 activity value (Lp-PLA2; [10]): 40.8 nmol/min/mL; absorbance change per minute (sensitivity) (Lp-PLA2; [10]): 28.8 ΔmAbs/min; Relative activity (Lp-PLA2; Example 9, sample Citrated pooled plasma): 100%; Relative activity (Lp-PLA2; Example 9, sample Heparin pooled plasma): 100%; Relative activity (Lp-PLA2; Example 9, sample Individual serum 16): 100%; Relative activity (Lp-PLA2; Example 9, sample Pooled serum C): 100%; Relative activity (Lp-PLA2; Example 9, sample Pooled serum J042): 100%
7 |  |  |  |  | 33.7 nmol/min/mL | 14.4 ΔmAbs/min | 14.5 nmol/min/mL | 6.2 ΔmAbs/min | 14.1 nmol/min/mL | 6.0 ΔmAbs/min | CCN(CC(O)CS(=O)(=O)[O-])c1cc(OC)cc(OC)c1.[Na+] (centres unmarked) [DAOS, N-ethyl-N-(2-hydroxy-3-sulfopropyl)-3,5-dimethoxyaniline sodium salt] | 
8 | 75.7 nmol/min/mL | 32.3 ΔmAbs/min | 37.5 nmol/min/mL | 16.0 ΔmAbs/min |  |  |  |  |  |  | O=S(=O)(O)CCNC(CO)(CO)CO [TES, N-tris(hydroxymethyl)methyl-2-aminoethanesulfonic acid] | 

Row | Structure (SMILES) | Lp-PLA2 activity value (Lp-PLA2; [1]) | absorbance change per minute (sensitivity) (Lp-PLA2; [1]) | Lp-PLA2 activity value (Lp-PLA2; [2]) | absorbance change per minute (sensitivity) (Lp-PLA2; [2]) | Lp-PLA2 activity value (Lp-PLA2; [3]) | absorbance change per minute (sensitivity) (Lp-PLA2; [3]) | Lp-PLA2 activity value (Lp-PLA2; [4]) | absorbance change per minute (sensitivity) (Lp-PLA2; [4]) | Lp-PLA2 activity value (Lp-PLA2; [5]) | absorbance change per minute (sensitivity) (Lp-PLA2; [5]) | other results
9 | O=P(O)(O)O [Pi-K, potassium phosphate] | 84.3 nmol/min/mL | 36.0 ΔmAbs/min | 37.5 nmol/min/mL | 16.0 ΔmAbs/min |  |  |  |  |  |  | 
10 | CCN(CC(O)CS(=O)(=O)[O-])c1cccc(C)c1.O.O.[Na+] (centres unmarked) [TOOS, N-ethyl-N-(2-hydroxy-3-sulfopropyl)-3-methylaniline, sodium salt, dihydrate] |  |  |  |  | 69.3 nmol/min/mL | 29.6 ΔmAbs/min | 28.1 nmol/min/mL | 12.0 ΔmAbs/min | 30.9 nmol/min/mL | 13.2 ΔmAbs/min | values for absorbance change (sensitivity) compared with DAOS (Lp-PLA2; Example 10): about twice those obtained with DAOS
